{"source": "patent US5705609A", "about": "“Decorin fragments inhibiting cell regulatory factors” (La Jolla Cancer Research Foundation, priority 1995, dated 1998)", "key": {"CHO cells": {"system": "CHO cells", "test": "[3H]thymidine incorporation (growth) in CHO cells", "format": "cell-based", "conditions": "TGFβ-1 at 5 ng/ml", "method": "The ability of decorin to modulate the activity of TGFβ-1 was examined in [^3 H]thymidine incorporation assays. In one assay, an unamplified CHO cell line transfected only with pSV2dhfr (control cell line A in reference 1, called CHO cells here) was used. The cells were maintained in nucleoside-free alpha-modified minimal essential medium (e-MEM, GIBCO, Long Island, N.Y.) supplemented with 9% dialyzed fetal calf serum (dFCS) and [^3 H]thymidine incorporation was assayed as described (Cheifetz et al., Cell 48:409-415 (1987)). TGFβ-1 was added to the CHO cell cultures at 5 ng/ml. At this concentration, it induced a 50% increase of [^3 H]thymidine incorporation in these cells. Decorin or BSA was added to the medium at different concentrations. The data represent percent neutralization of the TGFβ-1-induced growth stimulation, i.e., [^3 H]thymidine incorporation, in the absence of either TGFβ-1 or decorin=0%, incorporation in the presence of TGFβ-1 but not decorin=100%. […] Decorin (.circle-solid.) BSA (.largecircle.).\nThis was shown by gel filtration of the DEAE-isolated decorin under dissociating conditions. […] The fractions were analyzed by SDS-PAGE, decorin ELISA and cell growth assays, all described above. […] Shown are the ability of the gel filtration fractions to affect [^3 H]-thymidine incorporation by the CHO cells and the concentration of decorin as determined by enzyme immunoassay. […]"}, "Mv1Lu cells": {"system": "Mv1Lu cells", "test": "[3H]thymidine incorporation (growth) in Mv1Lu mink lung epithelial cells", "format": "cell-based", "conditions": "TGFβ-1 at 0.5 ng/ml", "method": "Assay was performed as in FIG. 4A, except that TGFβ-1 was added at 0.5 ng/ml. This concentration of TGFβ induces 50% reduction of [^3 H]-thymidine incorporation in the Mv1Lu cells. The data represent neutralization of TGFβ-induced growth inhibition; i.e., [^3 H]-thymidine incorporation in the presence of neither TGFβ or decorin=100%; incorporation in the presence of TGFβ but not decorin=0%. […] This was shown by gel filtration of the DEAE-isolated decorin under dissociating conditions. […] The fractions were analyzed by SDS-PAGE, decorin ELISA and cell growth assays, all described above. Three protein peaks were obtained. […] Shown are the ability of the gel filtration fractions to affect [^3 H]-thymidine incorporation by the CHO cells and the concentration of decorin as determined by enzyme immunoassay. Shown also (arrows) are the elution positions of molecular size markers: BSA, bovine serum albumin (Mr=66,000); CA, carbonic anhydrase (Mr=29,000); Cy, cytochrome c (Mr=12,400); AP, aprotinin (Mr=6,500); TGF, [^125 I]TGFβ-1 (Mr=25,000)."}}}
{"substance": "TGFβ-1: commercially obtained transforming growth factor β-1", "values": [{"measurement": "increase of [3H]thymidine incorporation", "setting": "CHO cells", "value": 50, "unit": "%"}, {"measurement": "reduction of [3H]-thymidine incorporation", "setting": "Mv1Lu cells", "value": 50, "unit": "%"}]}
